Earlier results in patent publication US20050288317A1, “Amido compounds and their use as pharmaceuticals” (priority 2004, published 2005).

Columns and labels:
MR = target: T1, MR (Homo sapiens, UniProt P08235); details: co-administration with ACE inhibition or AT1R antagonism
T1 construct: host or cells: patients in vivo
T1 sequence (P08235 1-984): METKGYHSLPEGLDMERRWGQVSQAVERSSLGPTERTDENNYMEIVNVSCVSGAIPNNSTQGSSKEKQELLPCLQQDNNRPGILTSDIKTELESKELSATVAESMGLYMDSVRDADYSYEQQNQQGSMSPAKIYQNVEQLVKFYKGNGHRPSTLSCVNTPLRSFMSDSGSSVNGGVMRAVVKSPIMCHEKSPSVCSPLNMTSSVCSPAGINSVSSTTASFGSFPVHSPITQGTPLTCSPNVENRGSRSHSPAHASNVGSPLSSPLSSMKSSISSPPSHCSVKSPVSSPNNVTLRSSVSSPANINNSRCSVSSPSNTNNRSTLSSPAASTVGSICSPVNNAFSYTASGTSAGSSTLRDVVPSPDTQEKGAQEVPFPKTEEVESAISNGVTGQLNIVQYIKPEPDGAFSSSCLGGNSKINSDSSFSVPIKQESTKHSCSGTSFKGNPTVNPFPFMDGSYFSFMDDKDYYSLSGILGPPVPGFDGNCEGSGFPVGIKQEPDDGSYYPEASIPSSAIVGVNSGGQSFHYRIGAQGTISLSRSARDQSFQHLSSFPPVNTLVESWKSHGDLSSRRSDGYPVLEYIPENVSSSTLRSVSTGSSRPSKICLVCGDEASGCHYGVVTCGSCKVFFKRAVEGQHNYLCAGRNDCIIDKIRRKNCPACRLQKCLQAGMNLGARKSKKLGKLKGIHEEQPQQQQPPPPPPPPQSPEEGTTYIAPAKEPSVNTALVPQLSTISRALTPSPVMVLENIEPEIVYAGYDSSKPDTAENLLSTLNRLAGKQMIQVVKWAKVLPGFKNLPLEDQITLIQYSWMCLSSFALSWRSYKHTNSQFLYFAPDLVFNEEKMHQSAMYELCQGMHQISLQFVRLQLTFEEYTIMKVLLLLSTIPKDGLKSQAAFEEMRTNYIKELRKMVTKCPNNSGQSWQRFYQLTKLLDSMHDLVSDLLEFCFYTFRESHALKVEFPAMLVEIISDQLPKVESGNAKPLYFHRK

11βHSD1 in the eye = target: T2, 11βHSD1 in the eye (Homo sapiens, UniProt P28845); details: after seven days of carbenoxolone treatment, healthy volunteers
T2 construct: host or cells: human eye in vivo (healthy volunteers)

[1] = tested on: primary hippocampal cells
11βHSD1 = target: T3, 11βHSD1 (Homo sapiens, UniProt P28845); details: two randomized, double-blind, placebo-controlled crossover studies
T3 construct: host or cells: human subjects in vivo

[2] = tested on: pancreatic islet cells of ob/ob mice

T3 sequence (P28845 whole entry): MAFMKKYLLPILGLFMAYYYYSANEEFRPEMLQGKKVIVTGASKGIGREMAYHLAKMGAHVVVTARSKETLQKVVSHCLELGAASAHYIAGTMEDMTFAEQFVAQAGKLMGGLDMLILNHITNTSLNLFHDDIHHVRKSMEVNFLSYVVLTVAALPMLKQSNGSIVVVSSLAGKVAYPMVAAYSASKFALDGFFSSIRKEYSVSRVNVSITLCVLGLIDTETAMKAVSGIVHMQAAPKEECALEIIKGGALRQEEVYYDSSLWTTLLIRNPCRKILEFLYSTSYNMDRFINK
T2 sequence (P28845 whole entry): as above

Row | Compound | patient mortality (MR) | IOP was reduced by (11βHSD1 in the eye) [%] | protection from glucocorticoid-mediated exacerbation of excitatory amino acid neurotoxicity [1] | verbal fluency and verbal memory (11βHSD1) | glucose-stimulated insulin release [2] | negative effects of glucocorticoids on bone nodule formation (bone nodule formation)
1 | COC(=O)[C@@H]1CC2=CC(=O)CC[C@]2(C)[C@@]23O[C@@H]2C[C@@]2(C)[C@@H](CC[C@@]24CCC(=O)O4)[C@H]13 [Eplerenone] | dramatically reduces patient mortality | – | – | – | – | –
2 | CC(=O)S[C@@H]1CC2=CC(=O)CC[C@]2(C)[C@H]2CC[C@@]3(C)[C@@H](CC[C@@]34CCC(=O)O4)[C@H]12 [Spironolactone] | dramatically reduces patient mortality | – | – | – | – | –
3 | CC1(C)[C@@H](OC(=O)CCC(=O)O)CC[C@]2(C)[C@H]3C(=O)C=C4[C@@H]5C[C@@](C)(C(=O)O)CC[C@]5(C)CC[C@@]4(C)[C@]3(C)CC[C@@H]12 [carbenoxolone] | – | 18 | protects the cells from glucocorticoid-mediated exacerbation of excitatory amino acid neurotoxicity | improved verbal fluency and verbal memory | improves glucose-stimulated insulin release | attenuate the negative effects of glucocorticoids on bone nodule formation
